Experimental data taken from US20240390340A1 (INCYTE CORPORATION, priority 2023, published 2024).
Like-named read-outs stand apart in the source and are kept apart here.

Assays:
KRAS G12V = KRAS G12V (Homo sapiens, UniProt P01116, G12V); experiment: GDP-GTP exchange assay (bodipy-GDP/GppNHp, SOS1), KRAS G12V; format: biochemical
KRAS G12D = KRAS G12D (Homo sapiens, UniProt P01116, G12D); experiment: GDP-GTP exchange assay (bodipy-GDP/GppNHp, SOS1), KRAS G12D; format: biochemical
[1] = KRAS G12V mutant, value for the most potent isomer quoted for certain compounds, read-out: G12V (KRAS G12V exchange assay IC50)
[2] = bodipy-loaded KRAS G12D 2.5 nM, 4 h pre-incubation, value for the most potent isomer quoted for certain compounds, read-out: G12D (KRAS G12D exchange assay IC50)

Sequence of KRAS G12D (P01116 1-188 isoform P01116-2 G12D): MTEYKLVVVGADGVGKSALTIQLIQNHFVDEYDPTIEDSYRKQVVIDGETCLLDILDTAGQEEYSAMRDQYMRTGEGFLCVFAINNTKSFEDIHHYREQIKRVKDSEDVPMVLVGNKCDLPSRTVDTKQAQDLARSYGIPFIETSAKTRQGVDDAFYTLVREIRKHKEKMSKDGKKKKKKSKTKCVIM
Sequence of KRAS G12V (P01116 1-188 isoform P01116-2 G12V): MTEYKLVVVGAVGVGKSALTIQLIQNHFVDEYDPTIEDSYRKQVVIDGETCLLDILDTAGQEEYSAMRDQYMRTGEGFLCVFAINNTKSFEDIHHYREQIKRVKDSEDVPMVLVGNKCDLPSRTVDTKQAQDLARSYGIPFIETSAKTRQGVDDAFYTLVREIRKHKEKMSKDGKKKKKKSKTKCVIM

IC50 (KRAS G12V; [1]) [nM]	IC50 (KRAS G12D; [2]) [nM]	IC50 (KRAS G12V; Table H, column G12V, for compounds isolated as several atropisomers/diastereoisomers the value for the most potent isomer is quoted, read-out: KRAS G12V exchange assay IC50) [nM]	IC50 (KRAS G12D; Table H, column G12D, for compounds isolated as several atropisomers/diastereoisomers the value for the most potent isomer is quoted, read-out: KRAS G12D exchange assay IC50) [nM]	Compound
≤ 100	≤ 100	–	–	Cc1ccnc(C)c1CO[C@H]1C[C@H](c2cc3c(C)nc4c(F)c(-c5cccc(Cl)c5Cl)c(CCC#N)cc4c3n2[C@H]2[C@H]3CN[C@@H]2C3)N(C(=O)C2(C)CC2)C1 [Example 140]
≤ 100	≤ 100	–	–	Cc1nc2c(F)c(-c3cccc(Cl)c3Cl)c(CCC#N)cc2c2c1cc([C@H]1C[C@H](Oc3cc(C(F)(F)F)nn3C)CN1C(=O)C1CC1)n2[C@H]1[C@H]2CN[C@@H]1C2 [Example 375]
≤ 100	≤ 100	–	–	Cc1nc2c(F)c(-c3cccc(Cl)c3Cl)c(CCC#N)cc2c2c1cc([C@H]1C[C@H](OCc3cn(C)nn3)CN1C(=O)C1CC1)n2[C@H]1[C@H]2CN[C@@H]1C2 [Example 100]
≤ 100	≤ 100	–	–	Cc1nc2c(F)c(-c3cccc(Cl)c3Cl)c(CCC#N)cc2c2c1cc([C@H]1C[C@H](n3cc(C4(CF)CC4)nn3)CN1C(=O)C1CC1)n2[C@H]1[C@H]2CN[C@@H]1C2 [Example 381]
≤ 100	≤ 100	–	–	Cc1nc2c(F)c(-c3cccc(Cl)c3Cl)c(CCC#N)cc2c2c1cc([C@H]1C[C@H](CCc3nccn3C)CN1C(=O)C1CC1)n2[C@H]1[C@H]2CN[C@@H]1C2 [Example 89]
≤ 100	≤ 100	–	–	Cc1nc2c(F)c(-c3cccc(Cl)c3Cl)c(CCC#N)cc2c2c1cc([C@H]1C[C@H](n3cc(C4(C)CCCC4)nn3)CN1C(=O)C1CC1)n2[C@H]1[C@H]2CN[C@@H]1C2 [Example 386]
≤ 100	≤ 100	–	–	Cc1ccncc1O[C@H]1C[C@H](c2cc3c(C)nc4c(F)c(-c5cccc(Cl)c5Cl)c(CCC#N)cc4c3n2[C@H]2[C@H]3CN[C@@H]2C3)N(C(=O)C2CC2)C1 [Example 130]
≤ 100	≤ 100	–	–	Cc1nc2c(F)c(-c3cccc(Cl)c3Cl)c(CCC#N)cc2c2c1cc([C@H]1C[C@H](Oc3nn(C)c4ccccc34)CN1C(=O)C1CC1)n2[C@H]1[C@H]2CN[C@@H]1C2 [Example 192]
≤ 100	100 to 1000	–	–	Cc1ccccc1C(=O)N1C[C@@H](OCc2c(F)cccc2F)C[C@@H]1c1cc2c(C)nc3c(F)c(-c4cccc(Cl)c4Cl)c(CCC#N)cc3c2n1[C@H]1[C@H]2CN[C@@H]1C2 [Example 196]
≤ 100	≤ 100	–	–	Cc1nc2c(F)c(-c3cccc(Cl)c3Cl)c(CCC#N)cc2c2c1cc([C@H]1C[C@H](OC[C@H]3C[C@H](C#N)C3)CN1C(=O)C1CC1)n2[C@H]1[C@H]2CN[C@@H]1C2 [Example 402]
≤ 100	≤ 100	–	–	[2H]C([2H])(O[C@H]1C[C@H](c2cc3c(C)nc4c(F)c(-c5cccc(Cl)c5Cl)c(CCC#N)cc4c3n2[C@H]2[C@H]3CN[C@@H]2C3)N(C(=O)C2CC2)[C@@H]1C)c1nscc1C [Example 242]
100 to 1000	1000 to 5000	–	–	Cc1nc2c(F)c(-c3cccc(Cl)c3Cl)c(CCC#N)cc2c2c1cc([C@H]1C[C@H](OC[C@@H]3CCCC[C@H]3C)CN1C(=O)C1CC1)n2[C@H]1[C@H]2CN[C@@H]1C2 [Example 286]
≤ 100	≤ 100	–	–	COC(=O)[C@H]1C[C@H]1c1cn([C@H]2C[C@H](c3cc4c(C)nc5c(F)c(-c6cccc(Cl)c6Cl)c(CCC#N)cc5c4n3[C@H]3[C@H]4CN[C@@H]3C4)N(C(=O)C3CC3)C2)nn1 [Example 390]
≤ 100	≤ 100	–	–	Cc1nc2c(F)c(-c3cccc(Cl)c3Cl)c(CCC#N)cc2c2c1cc([C@H]1C[C@H](OC(C)c3ccccc3)CN1C(=O)C1CC1)n2[C@H]1[C@H]2CN[C@@H]1C2 (stereo partly shown) [Example 93]
≤ 100	≤ 100	–	–	Cc1nc2c(F)c(-c3cccc(Cl)c3Cl)c(CCC#N)cc2c2c1cc([C@H]1C[C@H](Oc3ccn(C)c(=O)c3)CN1C(=O)C1CC1)n2[C@H]1[C@H]2CN[C@@H]1C2 [Example 419]
≤ 100	≤ 100	–	–	Cc1cn([C@H]2C[C@H](c3cc4c(C)nc5c(F)c(-c6cccc(Cl)c6Cl)c(CCC#N)cc5c4n3[C@H]3[C@H]4CN[C@@H]3C4)N(C(=O)C3CC3)C2)cn1 [Example 282]
≤ 100	≤ 100	–	–	Cc1nc2c(F)c(-c3cccc(Cl)c3Cl)c(CCC#N)cc2c2c1cc([C@H]1C[C@H](OCc3nc4ccccc4s3)CN1C(=O)C1CC1)n2[C@H]1[C@H]2CN[C@@H]1C2 [Example 360]
≤ 100	≤ 100	–	–	Cc1nc2c(F)c(-c3cccc(Cl)c3Cl)c(CCC#N)cc2c2c1cc([C@H]1C[C@H](O[C@@H](C)c3ccccn3)[C@@H](C)N1C(=O)C1CC1)n2[C@H]1[C@H]2CN[C@@H]1C2 [Example 245]

IC50 (KRAS G12V; [1]) [nM]	IC50 (KRAS G12D; [2]) [nM]	IC50 (KRAS G12V; Table H, column G12V, for compounds isolated as several atropisomers/diastereoisomers the value for the most potent isomer is quoted, read-out: KRAS G12V exchange assay IC50) [nM]	IC50 (KRAS G12D; Table H, column G12D, for compounds isolated as several atropisomers/diastereoisomers the value for the most potent isomer is quoted, read-out: KRAS G12D exchange assay IC50) [nM]	Compound
≤ 100	≤ 100	–	–	Cc1nc2c(F)c(-c3cccc(Cl)c3Cl)c(CCC#N)cc2c2c1cc([C@H]1C[C@H](Oc3cnn(C(C)C)c3)CN1C(=O)C1CC1)n2[C@H]1[C@H]2CN[C@@H]1C2 [Example 442]
≤ 100	≤ 100	–	–	Cc1nc2c(F)c(-c3cccc(Cl)c3Cl)c(CCC#N)cc2c2c1cc([C@H]1C[C@H](OCC3(C#N)CC3)CN1C(=O)C1CC1)n2[C@H]1[C@H]2CN[C@@H]1C2 [Example 338]
≤ 100	100 to 1000	–	–	N#CCCc1cc2c(nc(C3CC4CCCC3N4)c3cc([C@H]4C[C@H](OCc5c(F)cccc5F)CN4C(=O)C4CC4)n([C@H]4[C@H]5CN[C@@H]4C5)c32)c(F)c1-c1cccc(Cl)c1Cl (stereo partly shown) [Example 246]
≤ 100	≤ 100	–	–	C[C@@H](O)c1nc2c(F)c(-c3cccc(Cl)c3Cl)c(CCC#N)cc2c2c1cc([C@H]1C[C@H](Oc3cc(F)ccn3)CN1C(=O)C1CC1)n2[C@H]1C2CNC1C2 (stereo partly shown) [Example 425]
≤ 100	≤ 100	–	–	Cc1nc2c(F)c(-c3cccc(Cl)c3Cl)c(CCC#N)cc2c2c1cc([C@H]1C[C@H](n3cc(C4(C(C)(F)F)CC4)nn3)CN1C(=O)C1CC1)n2[C@H]1[C@H]2CN[C@@H]1C2 [Example 382]
≤ 100	≤ 100	–	–	C#Cc1ccc(O[C@H]2C[C@H](c3cc4c(C)nc5c(F)c(-c6cccc(Cl)c6Cl)c(CCC#N)cc5c4n3[C@H]3[C@H]4CN[C@@H]3C4)N(C(=O)C3CC3)C2)nc1 [Example 305]
100 to 1000	≤ 100	–	–	Cc1nc2c(F)c(-c3cccc(Cl)c3Cl)c(CCC#N)cc2c2c1cc([C@H]1C[C@H](n3nnc(-c4cccc(OC(F)(F)F)c4)n3)CN1C(=O)C1CC1)n2[C@H]1[C@H]2CN[C@@H]1C2 [Example 436]
≤ 100	≤ 100	–	–	Cc1nc2c(F)c(-c3cccc(Cl)c3Cl)c(CCC#N)cc2c2c1cc([C@H]1C[C@H](OCc3ccc(Cl)cc3C#N)CN1C(=O)C1CC1)n2[C@H]1[C@H]2CN[C@@H]1C2 [Example 159]
≤ 100	≤ 100	–	–	Cc1nc2c(F)c(-c3cccc(Cl)c3Cl)c(CCC#N)cc2c2c1cc([C@H]1C[C@H](OCc3cocn3)CN1C(=O)C1CC1)n2[C@H]1[C@H]2CN[C@@H]1C2 [Example 112]
–	–	≤ 100	≤ 100	COc1ncnc2c1ccn2[C@H]1C[C@H](c2cc3c(C)nc4c(F)c(-c5cccc(Cl)c5Cl)c(CCC#N)cc4c3n2[C@H]2[C@H]3CN[C@@H]2C3)N(C(=O)C2CC2)C1 [Example 73, 3-(1-((1R,4R,5S)-2-Azabicyclo[2.1.1]hexan-5-yl)-2-((2R,4S)-1-(cyclopropanecarbonyl)-4-(4-methoxy-7H-pyrrolo[2,3-d]pyrimidin-7-yl)pyrrolidin-2-yl)-7-(2,3-dichlorophenyl)-6-fluoro-4-methyl-1H-pyrrolo[3,2-c]quinolin-8-yl)propanenitrile]
≤ 100	≤ 100	–	–	Cc1nc2c(F)c(-c3cccc(Cl)c3Cl)c(CCC#N)cc2c2c1cc([C@H]1C[C@H](Oc3cn(C)nc3C(F)(F)F)CN1C(=O)C1CC1)n2[C@H]1[C@H]2CN[C@@H]1C2 [Example 376]
≤ 100	≤ 100	–	–	CCOC(=O)c1cn([C@H]2C[C@H](c3cc4c(C)nc5c(F)c(-c6cccc(Cl)c6Cl)c(CCC#N)cc5c4n3[C@H]3[C@H]4CN[C@@H]3C4)N(C(=O)C3CC3)C2)nn1 [Example 394]
≤ 100	≤ 100	–	–	Cc1csnc1C(C)O[C@H]1C[C@H](c2cc3c(C)nc4c(F)c(-c5cccc(Cl)c5Cl)c(CCC#N)cc4c3n2[C@H]2[C@H]3CN[C@@H]2C3)N(C(=O)C2CC2)[C@@H]1C (stereo partly shown) [Example 254]
≤ 100	≤ 100	–	–	Cc1nc2c(F)c(-c3cccc(Cl)c3Cl)c(CCC#N)cc2c2c1cc([C@H]1C[C@H](OCc3c(F)cccc3F)CN1C(=O)C1CC1)n2[C@H]1[C@H]2CN[C@@H]1C2 [Example 115]
≤ 100	≤ 100	–	–	Cc1nc2c(F)c(-c3cccc(Cl)c3Cl)c(CCC#N)cc2c2c1cc([C@H]1C[C@H](Oc3cccc(Cl)c3)CN1C(=O)C1CC1)n2[C@H]1[C@H]2CN[C@@H]1C2 [Example 161]
≤ 100	≤ 100	–	–	COC(=O)c1cccc(O[C@H]2C[C@H](c3cc4c(C)nc5c(F)c(-c6cccc(Cl)c6Cl)c(CCC#N)cc5c4n3[C@H]3[C@H]4CN[C@@H]3C4)N(C(=O)C3CC3)C2)c1 [Example 189]
≤ 100	≤ 100	–	–	Cc1cnn([C@H]2C[C@H](c3cc4c(C)nc5c(F)c(-c6cccc(Cl)c6Cl)c(CCC#N)cc5c4n3[C@H]3[C@H]4CN[C@@H]3C4)N(C(=O)C3CC3)C2)c1 [Example 279]
≤ 100	≤ 100	–	–	Cc1nc2c(F)c(-c3cccc(Cl)c3Cl)c(CCC#N)cc2c2c1cc([C@H]1C[C@H](OC(C)c3c(F)cccc3F)CN1C(=O)C1CC1)n2[C@H]1[C@H]2CN[C@@H]1C2 (stereo partly shown) [Example 227]

Compound	IC50 (KRAS G12V; [1]) [nM]	IC50 (KRAS G12D; [2]) [nM]	IC50 (KRAS G12V; Table H, column G12V, for compounds isolated as several atropisomers/diastereoisomers the value for the most potent isomer is quoted, read-out: KRAS G12V exchange assay IC50) [nM]	IC50 (KRAS G12D; Table H, column G12D, for compounds isolated as several atropisomers/diastereoisomers the value for the most potent isomer is quoted, read-out: KRAS G12D exchange assay IC50) [nM]
Cc1nc2c(F)c(-c3cccc(Cl)c3Cl)c(CCC#N)cc2c2c1cc([C@H]1C[C@H](OC3CCCC3)CN1C(=O)C1CC1)n2[C@H]1[C@H]2CN[C@@H]1C2 [Example 238]	≤ 100	≤ 100	–	–
Cc1nc2c(F)c(-c3cccc(Cl)c3Cl)c(CCC#N)cc2c2c1cc([C@H]1C[C@H](Oc3ccn(C)n3)CN1C(=O)C1CC1)n2[C@H]1[C@H]2CN[C@@H]1C2 [Example 170]	≤ 100	≤ 100	–	–
